Laboratory results from US20050112163A1, “PEST CONTROLLER AMD METHOD FOR CONTROLLING PESTS THEREWITH” (priority 2002, published 2005).

Test: Vapor pressure by Donovan method
Type: physicochemical
Settings: at 25° C. by Donovan method
Procedure: Donovan method is a method reported by a person in New method for estimating vapor pressure by the use of gas chromatography: Journal of Chromatography A. 749, pp. 123-129 (1996).
Test pest controllers (a) and (b) were made by the pest controller 1 shown in FIG. 2 with chemical substance 22 containing compound (A) (2,3,5,6-tetrafluoro-4-methoxymethylbenzyl 3-(1-propenyl)-2,2-dimethylcyclopropanecarboxylate, the vapor pressure at 25° C. by Donovan method: 1.4×10^−5 mmHg) as an active ingredient.

In the case of `CC=CC1C(C(=O)OCc2c(F)c(F)c(COC)c(F)c2F)C1(C)C` (stereo not shown) [compound (A), 2,3,5,6-tetrafluoro-4-methoxymethylbenzyl 3-(1-propenyl)-2,2-dimethylcyclopropanecarboxylate], the vapor pressure is reported as 1.4×10^−5 mmHg.
